Earlier results as cited in PubChem BioAssay AID1259409 (Chemical Carcinogenesis Research Information System (CCRIS), 2018).

Tested on: rodent chemically induced tumor inhibition, incidence and multiplicity
Experiment: CCRIS tumor inhibitor studies
Settings: Carcinogen: 7,12-DIMETHYLBENZ[A]ANTHRACENE, 57-97-6, Route [Inhibitor]: SUBCUTANEOUS, Promoter: NONE USED

Compound: CC(C)C[C@H]1C(=O)N2CCC[C@H]2[C@]2(O)O[C@](NC(=O)[C@@H]3C=C4c5cccc6[nH]c(Br)c(c56)C[C@H]4N(C)C3)(C(C)C)C(=O)N12
- tumour outcome (control, treated, inhibition, significance) (Dose [Inhibitor]: 0.1 MG 1/D FOR 81 D BEGINNING 30 D PRIOR TO FIRST CARCINOGEN DOSE TO 30 D POST LAST CARCINOGEN DOSE (STUDY DURATION: 31, Species: MOUSE, Strain/Sex: BALB/FEMALE, Target Tissue: Type of Lesion: MAMMARY GLAND: CARCINOMA, Dose [Carcinogen]: 1 MG IN SESAME OIL 1/WK FOR 4 WK): 8%, 8%, 0%, not significant
- tumour outcome (control, treated, inhibition, significance) (Dose [Inhibitor]: 0.1 MG/30 G BW FOR 81 D BEGINNING 30 D POST LAST CARCINOGEN DOSE (STUDY DURATION: 27 WK), Species: MOUSE, Strain/Sex: BALB/FEMALE, Target Tissue: Type of Lesion: MAMMARY GLAND: CARCINOMA, Dose [Carcinogen]: 1 MG IN SESAME OIL 1/WK FOR 4 WK): 7%, 8%, -14%, not significant
- tumour outcome (control, treated, inhibition, significance) (Dose [Inhibitor]: 0.4 MG/100 G BW 1/D FOR 50 D BEGINNING 30 D POST LAST CARCINOGEN DOSE (90 D TO 140 D OF AGE) (STUDY DURATION: 25 WK), Species: RAT, Strain/Sex: LEWIS/FEMALE, Target Tissue: Type of Lesion: MAMMARY GLAND: CARCINOMA, Dose [Carcinogen]: 10 MG IN SESAME OIL ONCE AT 56 D OF AGE AND ONCE AT 63 D OF AGE): 94%, 56%, 40%, p<0.005
- tumour outcome (control, treated, inhibition, significance) (Dose [Inhibitor]: 0.4 MG/100 G BW 1/D FOR 61 D BEGINNING 27 D PRIOR TO FIRST CARCINOGEN DOSE TO 27 D POST LAST CARCINOGEN DOSE (29 TO 90 D, Species: RAT, Strain/Sex: LEWIS/FEMALE, Target Tissue: Type of Lesion: MAMMARY GLAND: CARCINOMA, Dose [Carcinogen]: 10 MG IN SESAME OIL ONCE AT 56 D OF AGE AND ONCE AT 63 D OF AGE): 68%, 60%, 12%, not significant
- tumour outcome (control, treated, inhibition, significance) (Dose [Inhibitor]: 0.4 MG/100 G BW 4/WK FOR 20 WK BEGINNING 12 D PRIOR TO FIRST CARCINOGEN DOSE (STUDY DURATION: 152 D), Species: RAT, Strain/Sex: LONG-EVANS/FEMALE, Target Tissue: Type of Lesion: HEMATOPOIETIC SYSTEM: LEUKEMIA (UNDIFFERENTIATED CELL), Dose [Carcinogen]: 10 MG IN SESAME OIL 1/2 WK FOR 12 WK (6 TOTAL DOSES)): 13/40 (33%), 15/41 (36%), -9%, not significant
- tumour outcome (control, treated, inhibition, significance) (Dose [Inhibitor]: 0.4 MG/100 G BW 4/WK FOR 35 WK BEGINNING 12 D PRIOR TO FIRST CARCINOGEN DOSE (STUDY DURATION: 257 D), Species: RAT, Strain/Sex: LONG-EVANS/MALE, Target Tissue: Type of Lesion: HEMATOPOIETIC SYSTEM: LEUKEMIA (UNDIFFERENTIATED CELL), Dose [Carcinogen]: 10 MG IN SESAME OIL 1/2 WK FOR 12 WK (6 TOTAL DOSES)): 10/38 (26%), 8/38 (21%), 19%, not significant
- tumour outcome (control, treated, inhibition, significance) (Dose [Inhibitor]: 0.4 MG/D FROM 26 TO 93 D OF AGE BEGINNING 30 D PRIOR TO FIRST CARCINOGEN DOSE (STUDY DURATION: 9 MO AFTER LAST DMBA TREA, Species: RAT, Strain/Sex: LEWIS/FEMALE, Target Tissue: Type of Lesion: MAMMARY GLAND: CARCINOMA, Dose [Carcinogen]: 10 MG TWICE ONCE AT 56 D AND ONCE AT 63 D OF AGE): 70%, 62%, 11%, not significant
- tumour outcome (control, treated, inhibition, significance) (Dose [Inhibitor]: 0.4 MG/D FROM 30 TO 90 D OF AGE BEGINNING 30 D PRIOR TO CARCINOGEN DOSE (STUDY DURATION: 6 MO AFTER DMBA TREATMENT), Species: RAT, Strain/Sex: SPRAGUE-DAWLEY/FEMALE, Target Tissue: Type of Lesion: MAMMARY GLAND: CARCINOMA, Dose [Carcinogen]: 20 MG ONCE AT 60 D OF AGE): 96%, 82%, 15%, p<0.05
- tumour outcome (control, treated, inhibition, significance) (Dose [Inhibitor]: 0.4 MG/D FROM 30 TO 90 D OF AGE BEGINNING 30 D PRIOR TO CARCINOGEN DOSE (STUDY DURATION: 9 MO AFTER AMBA TREATMENT), Species: RAT, Strain/Sex: SPRAGUE-DAWLEY/FEMALE, Target Tissue: Type of Lesion: MAMMARY GLAND: CARCINOMA, Dose [Carcinogen]: 5 MG ONCE AT 60 D OF AGE): 82%, 60%, 27%, p<0.05
- tumour outcome (control, treated, inhibition, significance) (Dose [Inhibitor]: 0.4 MG/D FROM 30 TO 90 D OF AGE BEGINNING 30 D PRIOR TO CARCINOGEN DOSE (STUDY DURATION: 9 MO AFTER DMBA TREATMENT), Species: RAT, Strain/Sex: SPRAGUE-DAWLEY/FEMALE, Target Tissue: Type of Lesion: MAMMARY GLAND: FIBROADENOMA, Dose [Carcinogen]: 5 MG ONCE AT 60 D OF AGE): 25%, 15%, 40%, not significant
- tumour outcome (control, treated, inhibition, significance) (Dose [Inhibitor]: 0.4 MG/D FROM 30 TO 90 D OF AGE BEGINNING 30 D PRIOR TO CARCINOGEN DOSE (STUDY DURATION: 9 MO AFTER LAST DMBA TREATMENT), Species: RAT, Strain/Sex: LONG-EVANS/FEMALE, Target Tissue: Type of Lesion: MAMMARY GLAND: CARCINOMA, Dose [Carcinogen]: 20 MG ONCE AT 60 D OF AGE): 25%, 22%, 12%, not significant
- tumour outcome (control, treated, inhibition, significance) (Dose [Inhibitor]: 0.4 MG/D FROM 30 TO 90 D OF AGE BEGINNING 30 D PRIOR TO CARCINOGEN DOSE (STUDY DURATION: 9 MO AFTER LAST DMBA TREATMENT), Species: RAT, Strain/Sex: LONG-EVANS/FEMALE, Target Tissue: Type of Lesion: MAMMARY GLAND: FIBROADENOMA, Dose [Carcinogen]: 20 MG ONCE AT 60 D OF AGE): 12%, 3%, 75%, not significant
- tumour outcome (control, treated, inhibition, significance) (Dose [Inhibitor]: 0.4 MG/D FROM 30 TO 90 D OF AGE BEGINNING 30 D PRIOR TO CARCINOGEN DOSE (STUDY DURATION: 12 MO AFTER DMBA TREATMENT), Species: RAT, Strain/Sex: SPRAGUE-DAWLEY/FEMALE, Target Tissue: Type of Lesion: MAMMARY GLAND: CARCINOMA, Dose [Carcinogen]: 1.25 MG ONCE AT 60 D OF AGE): 10%, 10%, 0%, not significant
- tumour outcome (control, treated, inhibition, significance) (Dose [Inhibitor]: 0.4 MG/D FROM 30 TO 90 D OF AGE BEGINNING 30 D PRIOR TO CARCINOGEN DOSE (STUDY DURATION: 12 MO AFTER DMBA TREATMENT), Species: RAT, Strain/Sex: SPRAGUE-DAWLEY/FEMALE, Target Tissue: Type of Lesion: MAMMARY GLAND: FIBROADENOMA, Dose [Carcinogen]: 1.25 MG ONCE AT 60 D OF AGE): 90%, 80%, 11%, p<0.05
